From ChEMBL document CHEMBL1201862, “PubChem BioAssay data set” (2004)
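Interpolation was linear, between the two tested concentrations surrounding the appropriate level; five concentrations were tested over 48 hours in 96-well plates. Abbreviation: GI50, concentration required for 50% inhibition of growth.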 The source made the active and inactive calls. Rule as the data show it: active = GI50 up to about 1.1 µM and inactive = higher.

Experiments:
Experiment in all cases: NCI-60 cell line screen, 48 h
HCT-15 = tested on: HCT-15
IGROV-1 = tested on: IGROV-1
ACHN = tested on: ACHN
SW-620 = tested on: SW-620
SK-MEL-5 = tested on: SK-MEL-5
KM12 = tested on: KM12
NCI-H23 = tested on: NCI-H23
DU-145 = tested on: DU-145
SF-295 = tested on: SF-295
NCI-H460 = tested on: NCI-H460
UO-31 = tested on: UO-31
BT-549 = tested on: BT-549
TK-10 = tested on: TK-10
U-251 = tested on: U-251
NCI-H226 = tested on: NCI-H226
NCI/ADR-RES = tested on: NCI/ADR-RES
K562 = tested on: K562
NCI-H522 = tested on: NCI-H522
SR = tested on: SR

SMILES	GI50 (HCT-15) [µM]	GI50 (IGROV-1)	GI50 (ACHN)	GI50 (SW-620)	GI50 (SK-MEL-5)	GI50 (KM12)	GI50 (NCI-H23)	GI50 (DU-145)	GI50 (SF-295)	GI50 (NCI-H460)	GI50 (UO-31)	GI50 (BT-549)	GI50 (TK-10)	GI50 (U-251)	GI50 (NCI-H226)	GI50 (NCI/ADR-RES)	GI50 (K562)	GI50 (NCI-H522)	GI50 (SR)
N#C/C(=C/NC(N)=S)C(N)=O	> 100	> 100 µM (inactive)	> 100 µM (inactive)	> 100 µM (inactive)	> 100 µM (inactive)	> 100 µM (inactive)	> 100 µM (inactive)	> 100 µM (inactive)	> 100 µM (inactive)	> 100 µM (inactive)	> 100 µM (inactive)	> 100 µM (inactive)	> 100 µM (inactive)	> 100 µM (inactive)	> 100 µM (inactive)	> 100 µM (inactive)			
Clc1ncc(Cl)c(Cl)n1	2.24	9.66 µM (inactive)	1.92 µM (inactive)	1.38 µM (inactive)	5.05 µM (inactive)	9.14 µM (inactive)	15.5 µM (inactive)	11.8 µM (inactive)	13.2 µM (inactive)	5.27 µM (inactive)	3.17 µM (inactive)		9.55 µM (inactive)	4.22 µM (inactive)	4.85 µM (inactive)	3.95 µM (inactive)	0.832 µM (active)	1.48 µM (inactive)	1.61 µM (inactive)
[O-][N+]1=C2CCC/C(=N/O)C2(O)C2CCCCC21N1CCOCC1 (stereo not drawn)	> 100	> 100 µM (inactive)	> 100 µM (inactive)	> 100 µM (inactive)	> 100 µM (inactive)	> 100 µM (inactive)	> 100 µM (inactive)		> 100 µM (inactive)	> 100 µM (inactive)	> 100 µM (inactive)	> 100 µM (inactive)	> 100 µM (inactive)	> 100 µM (inactive)	> 100 µM (inactive)	> 100 µM (inactive)	> 100 µM (inactive)	> 100 µM (inactive)	> 100 µM (inactive)
Cc1ccc(NC(=O)CCc2cc(C(C)(C)C)nc(S)n2)cc1C	> 100	> 100 µM (inactive)	> 100 µM (inactive)	> 100 µM (inactive)	> 100 µM (inactive)	> 100 µM (inactive)	> 100 µM (inactive)		> 100 µM (inactive)	> 100 µM (inactive)	> 100 µM (inactive)		> 100 µM (inactive)	> 100 µM (inactive)	> 100 µM (inactive)		> 100 µM (inactive)	> 100 µM (inactive)	> 100 µM (inactive)
Cc1ccc(N/C(=C(/C(Cl)=C(Cl)Cl)[N+](=O)[O-])n2nnc3ccccc32)cc1	24.3		21.4 µM (inactive)	20.7 µM (inactive)		21.2 µM (inactive)	21.5 µM (inactive)		20.1 µM (inactive)	18 µM (inactive)	16.6 µM (inactive)	17.7 µM (inactive)			18.5 µM (inactive)	27.2 µM (inactive)	23.6 µM (inactive)		
CCOC(=O)N1c2ccccc2C(C)=CC(C)C1C (stereo not drawn)	5.36	44 µM (inactive)	49.7 µM (inactive)	29.4 µM (inactive)	12.5 µM (inactive)	9.82 µM (inactive)	22.8 µM (inactive)	38.3 µM (inactive)	23.9 µM (inactive)	21.4 µM (inactive)	55.7 µM (inactive)		4.55 µM (inactive)		22.8 µM (inactive)	25.8 µM (inactive)	18.9 µM (inactive)	18.7 µM (inactive)	5.09 µM (inactive)
N#CC(C#N)=C/C=C/c1c(Cl)cccc1Cl	1.91	2.16 µM (inactive)	1.6 µM (inactive)	1.92 µM (inactive)	1.85 µM (inactive)	1.58 µM (inactive)	1.47 µM (inactive)	1.71 µM (inactive)	2.07 µM (inactive)	1.87 µM (inactive)	1.84 µM (inactive)		2.7 µM (inactive)	1.81 µM (inactive)	2.45 µM (inactive)	1.96 µM (inactive)	2.55 µM (inactive)	1.65 µM (inactive)	1.7 µM (inactive)
CC1CCC2(NC1)OC1CC3C4CC=C5CC(OC6OC(CO)C(OC7OC(C)C(O)C(O)C7O)C(O)C6OC6OC(C)C(O)C(O)C6O)CCC5(C)C4CCC3(C)C1C2C (stereo not drawn)	6.67	5.82 µM (inactive)	3.91 µM (inactive)	4.4 µM (inactive)	5.58 µM (inactive)	3.46 µM (inactive)	12.2 µM (inactive)	4 µM (inactive)	2.08 µM (inactive)	3.55 µM (inactive)	7.45 µM (inactive)	15.6 µM (inactive)	5.31 µM (inactive)	2.84 µM (inactive)	2.46 µM (inactive)		4.11 µM (inactive)	1.7 µM (inactive)	3.08 µM (inactive)
